Assay results published in patent publication US20110128610A1, “PHENOLIC CONFIGURATIONALLY LOCKED POLYENE BULK SINGLE CRYSTALS, CRYSTALLINE THIN FILMS AND WAVEGUIDES FOR ELECTRO-OPTICS AND THZ-WAVE APPLICATIONS” (priority 2008, published 2011).
Where “and” joins values, the source holds several entries; their conditions need not be identical. Equal entries are not always repeated. Where two headings read alike, the source gives them in different places.

What was measured:
[1] = Thermal stability by thermogravimetric analysis (thermal weight-loss temperature Ti); assay type: physicochemical; conditions: TGA under nitrogen atmosphere, scan rate 10° C./min
Experimental: The thermal stability of the OH1 chromophore was investigated using thermogravimetric analysis (TGA) and differential scanning calorimetry (DSC) under nitrogen atmosphere (scan rate: 10° C./min). The melting temperature Tm is defined here as the peak position in the DSC scan. The thermal weight-loss temperature Ti estimated as the temperature at the intercept of the leading edge of the weight loss by the base line of the TGA scans. […] The high thermal stability of OH1 crystals is an advantage for applying a melt-based crystal growth that is difficult for the ionic salts, e.g. DAST that decomposes at the melting temperature.

[2] = comparison crystals from literature [13], [11, 18, 12]; cited from earlier work
[3] = comparison crystals; cited from earlier work
[4] = comparison crystals from literature; cited from earlier work
[5] = Solubility of OH1 and comparison crystals in methanol and other organic solvents; assay type: physicochemical
Experimental: OH1 molecules are dissolved very well in acetone and acetonitrile, and relatively good in ethanol and methanol. We selected methanol as the solvent for growing the crystals because the solubility in acetone is too high and the solute yield on decreasing the temperature is the most efficient in methanol.
The solubility of OH1 in methanol as a function of temperature is shown in FIG. 25; the solid curve is according to the Van't Hoff equation with the solution enthalpy ΔH=29±2 kJ/mol and entropy change ΔS=[…].

[6] = Solubility in water; assay type: physicochemical

With CC1CC(C=Cc2ccc(O)cc2)=CC(=C(C#N)C#N)C1 (stereo not shown) [OH2, 2-(3-(4-hydroxystyryl)-5-methylcyclohex-2-enylidene)malononitrile] the “thermal weight-loss temperature Ti” value [1] was 242/326 °C.
For CN(C)c1ccc(C=CC2=CC(=C(C#N)C#N)CC(C)(C)C2)cc1 [DAT2], the “solubility at 40° C. (g/100 g methanol)” value [2] is listed as less than 0.01 g/100 g methanol, the solubility in water [3] is listed as “insoluble” and the “thermal weight-loss temperature Ti” value [4] is listed as 293 °C.
With CC1(C)CC(/C=C/c2ccc(O)cc2)=CC(=C(C#N)C#N)C1 [OH1, 2-(3-(4-hydroxystyryl)-5,5-dimethylcyclohex-2-enylidene)malononitrile] the “Solubility in Acetone” value ([5]; 25° C.) was 25.9 g/100 g solvent, the “Solubility in Acetone” value ([5]; 40° C.) was 41.8 g/100 g solvent and the “Solubility in Acetonitrile” value ([5]; 25° C.) was 4.32 g/100 g solvent. The “Solubility in Acetonitrile” value ([5]; 40° C.) was 5.3 g/100 g solvent, the “Solubility in Ethanol” value ([5]; 25° C.) was 2.34 g/100 g solvent and the “Solubility in Ethanol” value ([5]; 40° C.) was 2.5 g/100 g solvent. The “Solubility in Methanol” value ([5]; methanol, 25° C.) was 2.15 g/100 g solvent, the “solubility at 40° C. (g/100 g methanol)” value ([5]; methanol, 40° C.) was 3.74 g/100 g methanol and the “Solubility in Methanol” value ([5]; methanol, 40° C. (Table 9)) was 3.4 g/100 g solvent. The “Solubility in Methylene chloride” value ([5]; 25° C.) was 1.4 g/100 g solvent, the “Solubility in Methylene chloride” value ([5]; 40° C.) was 1.9 g/100 g solvent and the solubility in water [6] was “insoluble”.
For CN(C)c1ccc(C=Cc2cc[n+](C)cc2)cc1.Cc1ccc(S(=O)(=O)[O-])cc1 [DAST, 4′-dimethylamino-N-methyl-4-stilbazolium tosylate], the “solubility at 40° C. (g/100 g methanol)” value [2] is listed as 3.73 g/100 g methanol, the solubility in water [3] is listed as “highly soluble” and the “thermal weight-loss temperature Ti” value [4] is listed as 250 °C and 250/250 °C.
